Results from US10793563B2, “GCN2 inhibitors and uses thereof” (Merck Patent GmbH, priority 2018, dated 2020).

Experiments:
[1] = molecular target: intracellular GCN2 (phosphorylation of the GCN2 substrate eIF2α) (Homo sapiens (Human), UniProt Q9P2K8); test: GCN2 Cellular Inhibition Assay (AlphaScreen SureFire P-eIF2α Ser51, borrelidin-treated U2OS cells); type: cell-based; settings: 10 μM borrelidin, 1 h, phosphorylated eIF2α Ser51, read-out: GCN2 Biomarker (IC50)
Procedure, shortened: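 Phospho-eIF2α (Ser51) measured by AlphaScreen SureFire in lysates of U2OS cells stimulated 1 h at 37 °C with 10 μM borrelidin alongside compound, 4-fold dilutions from 40 μM. Inhibition expressed as percent relative to borrelidin-alone controls.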

[2] = molecular target: GCN2 kinase (Homo sapiens (Human), UniProt Q9P2K8); test: GCN2 Enzyme Inhibition Assay (Transcreener ADP2 fluorescence polarization); type: biochemical; settings: 280 μM ATP, 200 μM (RS)7 peptide, 4 nM GCN2, 25° C.; for Ki: Ki(app)
Procedure, shortened: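 At 25 °C, GCN2 kinase (typical final concentration 4 nM) and (RS)7 peptide in Tris-HCl pH 7.5 buffer with MgCl2, NaCl and DTT were preincubated with compound for 10 min, then ATP was added for a 1 h reaction. ADP was read by FP with antibody/Alexa633 tracer. Non-linear tight-binding analysis gave IC50 and apparent Ki.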

Sequence of intracellular GCN2 (phosphorylation of the GCN2 substrate eIF2α) (Q9P2K8 whole entry): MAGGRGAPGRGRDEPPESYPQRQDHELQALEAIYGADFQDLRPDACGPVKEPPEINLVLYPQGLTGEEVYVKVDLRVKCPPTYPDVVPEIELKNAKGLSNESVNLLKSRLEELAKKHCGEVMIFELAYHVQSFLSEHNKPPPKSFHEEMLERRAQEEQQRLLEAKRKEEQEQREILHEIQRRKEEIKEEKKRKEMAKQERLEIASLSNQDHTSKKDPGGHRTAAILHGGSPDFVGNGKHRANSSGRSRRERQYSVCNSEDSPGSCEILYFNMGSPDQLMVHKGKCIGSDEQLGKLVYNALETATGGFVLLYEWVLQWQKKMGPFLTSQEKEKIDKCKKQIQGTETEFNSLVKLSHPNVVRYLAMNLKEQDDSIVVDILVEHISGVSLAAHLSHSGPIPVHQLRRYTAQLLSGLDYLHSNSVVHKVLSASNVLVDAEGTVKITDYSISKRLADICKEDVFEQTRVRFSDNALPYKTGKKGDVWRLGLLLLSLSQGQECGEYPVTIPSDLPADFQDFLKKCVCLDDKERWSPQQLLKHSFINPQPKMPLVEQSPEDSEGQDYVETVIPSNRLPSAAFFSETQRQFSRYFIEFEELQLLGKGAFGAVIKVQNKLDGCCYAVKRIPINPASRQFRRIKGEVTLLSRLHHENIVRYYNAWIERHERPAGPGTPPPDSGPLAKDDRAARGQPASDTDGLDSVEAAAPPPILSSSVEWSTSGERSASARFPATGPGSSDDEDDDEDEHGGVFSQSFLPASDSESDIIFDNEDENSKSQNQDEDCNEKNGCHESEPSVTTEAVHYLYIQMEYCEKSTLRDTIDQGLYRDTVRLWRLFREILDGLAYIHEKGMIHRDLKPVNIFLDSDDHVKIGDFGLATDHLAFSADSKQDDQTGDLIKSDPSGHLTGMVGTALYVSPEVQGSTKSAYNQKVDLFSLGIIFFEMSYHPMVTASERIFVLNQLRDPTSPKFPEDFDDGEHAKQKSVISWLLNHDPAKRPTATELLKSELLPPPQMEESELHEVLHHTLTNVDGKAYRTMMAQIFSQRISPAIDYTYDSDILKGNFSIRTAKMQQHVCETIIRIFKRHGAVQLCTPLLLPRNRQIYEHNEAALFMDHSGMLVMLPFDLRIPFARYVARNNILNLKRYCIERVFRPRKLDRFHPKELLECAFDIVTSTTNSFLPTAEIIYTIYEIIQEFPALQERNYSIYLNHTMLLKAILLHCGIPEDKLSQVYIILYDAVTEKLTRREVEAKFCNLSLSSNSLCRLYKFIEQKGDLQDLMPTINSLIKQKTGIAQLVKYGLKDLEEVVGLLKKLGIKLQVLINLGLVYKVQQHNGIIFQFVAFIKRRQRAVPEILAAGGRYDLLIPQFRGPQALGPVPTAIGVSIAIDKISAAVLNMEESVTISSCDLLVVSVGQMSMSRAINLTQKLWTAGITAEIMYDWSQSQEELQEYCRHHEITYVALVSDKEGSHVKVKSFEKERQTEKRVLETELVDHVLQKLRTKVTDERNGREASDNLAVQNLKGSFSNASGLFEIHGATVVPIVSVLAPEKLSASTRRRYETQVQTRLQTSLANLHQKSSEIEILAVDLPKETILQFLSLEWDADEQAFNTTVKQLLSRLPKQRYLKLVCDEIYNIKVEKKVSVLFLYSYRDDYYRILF
Sequence of GCN2 kinase (Q9P2K8 whole entry): as above

SMILES | IC50 [1] | IC50 [2] | Ki [2]
Cc1[nH]ncc1[C@@H]1C[C@@H](O)CN(c2ccnc(-c3cnc4ccc(C(F)(F)F)cn34)n2)C1 [I-308, (3R,5S)-5-(5-methyl-1H-pyrazol-4-yl)-1-(2-(6-(trifluoromethyl)imidazo[1,2-a]pyridin-3-yl)pyrimidin-4-yl)piperidin-3-ol] | 500 to 5000 nM | 10 to 100 nM | 
CS(=O)(=O)NC[C@@H]1CN(c2nccc(-c3cnc4ccc(C(F)F)cn34)n2)CCO1 [I-17, N-[[(2S)-4-[4-[6-(Difluoromethyl)imidazo[1,2-a]pyridin-3-yl]pyrimidin-2-yl]morpholin-2-yl]methyl]methanesulfonamide] | < 500 nM |  | < 10 nM
Cc1n[nH]cc1C1CN(c2ccnc(-c3cnc4ccc(C(F)(F)F)cn34)n2)CC(C)O1 (centres unmarked) [I-358, 2-methyl-6-(3-methyl-1H-pyrazol-4-yl)-4-(2-(6-(trifluoromethyl)imidazo[1,2-a]pyridin-3-yl)pyrimidin-4-yl)morpholine] | < 500 nM | < 10 nM | 
C[C@@H]1C[C@H](N=S(C)(C)=O)CN(c2ccnc(-c3cnc4ccc(OC(F)F)cn34)n2)C1 [I-291, dimethyl(((3 S,5R)-5-methyl-1-(2-(6-(difluoromethoxy)imidazo[1,2-a]pyridin-3-yl)pyrimidin-4-yl)piperidin-3-yl)imino)-λ6-sulfanone] | 500 to 5000 nM | 10 to 100 nM | 
FC(F)(F)c1ccc2ncc(-c3ccnc(N4CCN(C5CC5)[C@H](c5cn[nH]c5)C4)n3)n2c1 [I-508, 3-{2-[(R)-4-Cyclopropyl-3-(1H-pyrazol-4-yl)-piperazin-1-yl]-pyrimidin-4-yl}-6-trifluoromethyl-imidazo[1,2-a]pyridine] | < 500 nM | < 10 nM | 
C[C@@H]1CN(c2ccnc(-c3cnc4ccc(C(F)(F)F)cn34)n2)C[C@H](C)N1C(=O)C1CC1 [I-403, cyclopropyl(cis-2,6-dimethyl-4-(2-(6-(trifluoromethyl)imidazo[1,2-a]pyridin-3-yl)pyrimidin-4-yl)piperazin-1-yl)methanone] | 500 to 5000 nM | 100 to 1000 nM | 
FC(F)c1ccc2ncc(-c3nsc(N4CCOC(c5cn[nH]c5)C4)n3)n2c1 (centres unmarked) [I-105, 4-(3-(6-(difluoromethyl)imidazo[1,2-a]pyridin-3-yl)-1,2,4-thiadiazol-5-yl)-2-(1H-pyrazol-4-yl)morpholine] | > 5000 nM |  | 10 to 100 nM
COCCn1cc([C@@H]2C[C@H](C)CN(c3nccc(-c4cnc5ccc(C(F)(F)F)cn45)n3)C2)cn1 [I-146, 3-(2-((3S,5S)-3-(1-(2-methoxyethyl)-1H-pyrazol-4-yl)-5-methylpiperidin-1-yl)pyrimidin-4-yl)-6-(trifluoromethyl)imidazo[1,2-a]pyridine] | 500 to 5000 nM | 100 to 1000 nM | 
CC(C)(C)OC(=O)N1CC2(C1)CN(c1ccnc(-c3cnc4ccc(C(F)(F)F)cn34)n1)CCO2 [I-386, tert-butyl 8-(2-(6-(trifluoromethyl)imidazo[1,2-a]pyridin-3-yl)pyrimidin-4-yl)-5-oxa-2,8-diazaspiro[3.5]nonane-2-carboxylate] | 500 to 5000 nM | 100 to 1000 nM | 
C[C@H](NS(C)(=O)=O)[C@H]1CN(c2ccnc(-c3cnc4ccc(C(F)(F)F)cn34)n2)CCO1 (stereo in doubt) [I-405, N—((S)-1-((R)-4-(2-(6-(trifluoromethyl)imidazo[1,2-a]pyridin-3-yl)pyrimidin-4-yl)morpholin-2-yl)ethyl)methanesulfonamide] | 500 to 5000 nM | 10 to 100 nM | 
CC(C)n1cc(C(=O)N2CCN(c3ccnc(-c4cnc5ccc(C(F)(F)F)cn45)n3)CC2c2cn[nH]c2)cn1 (centres unmarked) [I-391, (2-(1H-pyrazol-4-yl)-4-(2-(6-(trifluoromethyl)imidazo[1,2-a]pyridin-3-yl)pyrimidin-4-yl)piperazin-1-yl)(1-isopropyl-1H-pyrazol-4-yl)methanone] | 500 to 5000 nM | 100 to 1000 nM | 
Cc1[nH]ncc1C1CC(F)CN(c2ccnc(-c3cnc4cc(F)c(Cl)cn34)n2)C1 (centres unmarked) [I-426, 6-chloro-7-fluoro-3-(4-(3-fluoro-5-(5-methyl-1H-pyrazol-4-yl)piperidin-1-yl)pyrimidin-2-yl)imidazo[1,2-a]pyridine] | 500 to 5000 nM | 10 to 100 nM | 
C[C@@H]1[C@@H](c2cn[nH]c2)NCCN1c1ccnc(-c2cnc3ccc(C(F)(F)F)cn23)n1 [I-536, 3-(4-((2R,3R)-2-methyl-3-(1H-pyrazol-4-yl)piperazin-1-yl)pyrimidin-2-yl)-6-(trifluoromethyl)imidazo[1,2-a]pyridine] | 500 to 5000 nM | 100 to 1000 nM | 
Cc1cc(-c2cnc3ccc(Cl)cn23)nc(N2C[C@@H](C)O[C@H](c3cn[nH]c3C)C2)n1 [I-218, (2R,6R)-4-(4-(6-chloroimidazo[1,2-a]pyridin-3-yl)-6-methylpyrimidin-2-yl)-2-methyl-6-(5-methyl-1H-pyrazol-4-yl)morpholine] | 500 to 5000 nM | 10 to 100 nM | 
N#Cc1ccc2ncc(-c3nccc(N4CCOC(c5cn[nH]c5C(F)F)C4)n3)n2c1 (centres unmarked) [I-193, 3-(4-(2-(5-(difluoromethyl)-1H-pyrazol-4-yl)morpholino)pyrimidin-2-yl)imidazo[1,2-a]pyridine-6-carbonitrile] | < 500 nM | < 10 nM | 
NC(=O)C1(C2CCCN(c3ccnc(-c4cnc5ccc(Cl)cn45)n3)C2)CC1 (centres unmarked) [I-303, 1-(1-(2-(6-chloroimidazo[1,2-a]pyridin-3-yl)pyrimidin-4-yl)piperidin-3-yl)cyclopropane-1-carboxamide] | 500 to 5000 nM | 10 to 100 nM | 
NC(=O)[C@@H]1CN(c2ccnc(-c3cnc4ccc(C(F)(F)F)cn34)n2)CCO1 [I-150, (S)-4-(2-(6-(trifluoromethyl)imidazo[1,2-a]pyridin-3-yl)pyrimidin-4-yl)morpholine-2-carboxamide] | < 500 nM | 10 to 100 nM | 
NC(=O)[C@H]1C[C@H](O)CN(c2nccc(-c3cnc4ccc(Cl)cn34)n2)C1 [I-316, (3 S,5S)-1-(4-(6-chloroimidazo[1,2-a]pyridin-3-yl)pyrimidin-2-yl)-5-hydroxypiperidine-3-carboxamide] | < 500 nM | < 10 nM | 
Cc1[nH]ncc1C1N[C@@H](C)CN(c2nccc(-c3cnc4ccc(C(F)(F)F)cn34)n2)[C@H]1C (stereo partly drawn) [I-172, 3-(2-((2S,5S)-2,5-dimethyl-3-(5-methyl-1H-pyrazol-4-yl)piperazin-1-yl)pyrimidin-4-yl)-6-(trifluoromethyl)imidazo[1,2-a]pyridine] | < 500 nM | 10 to 100 nM | 
CC1CN(c2ccnc(-c3cnc4ccc(Cl)cn34)n2)C(C)C(c2cn[nH]c2)N1 (centres unmarked) [I-36, 6-chloro-3-[4-[2,5-dimethyl-3-(1H-pyrazol-4-yl)piperazin-1-yl]pyrimidin-2-yl]imidazo[1,2-a]pyridine] | < 500 nM |  | < 10 nM
NC(=O)C1CN(c2ccnc(-c3cnc4ccc(C(F)(F)F)cn34)n2)CCN1C1CC1 (centres unmarked) [I-311, 1-cyclopropyl-4-(2-(6-(trifluoromethyl)imidazo[1,2-a]pyridin-3-yl)pyrimidin-4-yl)piperazine-2-carboxamide] | 500 to 5000 nM | 10 to 100 nM | 
C[C@@H]1CN(c2nccc(-c3cnc4cc(F)c(Cl)cn34)n2)C[C@@H](c2cn[nH]c2)O1 [I-274, (2R,6R)-4-(4-(6-chloro-7-fluoroimidazo[1,2-a]pyridin-3-yl)pyrimidin-2-yl)-2-methyl-6-(1H-pyrazol-4-yl)morpholine] | 500 to 5000 nM | 10 to 100 nM | 
